Measured values: ChEMBL document CHEMBL5126539, “Recent development of BTK-based dual inhibitors in the treatment of cancers” (Eur J Med Chem, 2022)
pIC50: −log10 of the molar value. Values belong to the compound of their own block, whether it stands above or below them.

Columns and labels:
[1] = target: T1, Tyrosine-protein kinase JAK3 (Homo sapiens, UniProt P52333); experiment: Inhibition of recombinant JAK3 (unknown origin)
T1 sequence (P52333 whole entry): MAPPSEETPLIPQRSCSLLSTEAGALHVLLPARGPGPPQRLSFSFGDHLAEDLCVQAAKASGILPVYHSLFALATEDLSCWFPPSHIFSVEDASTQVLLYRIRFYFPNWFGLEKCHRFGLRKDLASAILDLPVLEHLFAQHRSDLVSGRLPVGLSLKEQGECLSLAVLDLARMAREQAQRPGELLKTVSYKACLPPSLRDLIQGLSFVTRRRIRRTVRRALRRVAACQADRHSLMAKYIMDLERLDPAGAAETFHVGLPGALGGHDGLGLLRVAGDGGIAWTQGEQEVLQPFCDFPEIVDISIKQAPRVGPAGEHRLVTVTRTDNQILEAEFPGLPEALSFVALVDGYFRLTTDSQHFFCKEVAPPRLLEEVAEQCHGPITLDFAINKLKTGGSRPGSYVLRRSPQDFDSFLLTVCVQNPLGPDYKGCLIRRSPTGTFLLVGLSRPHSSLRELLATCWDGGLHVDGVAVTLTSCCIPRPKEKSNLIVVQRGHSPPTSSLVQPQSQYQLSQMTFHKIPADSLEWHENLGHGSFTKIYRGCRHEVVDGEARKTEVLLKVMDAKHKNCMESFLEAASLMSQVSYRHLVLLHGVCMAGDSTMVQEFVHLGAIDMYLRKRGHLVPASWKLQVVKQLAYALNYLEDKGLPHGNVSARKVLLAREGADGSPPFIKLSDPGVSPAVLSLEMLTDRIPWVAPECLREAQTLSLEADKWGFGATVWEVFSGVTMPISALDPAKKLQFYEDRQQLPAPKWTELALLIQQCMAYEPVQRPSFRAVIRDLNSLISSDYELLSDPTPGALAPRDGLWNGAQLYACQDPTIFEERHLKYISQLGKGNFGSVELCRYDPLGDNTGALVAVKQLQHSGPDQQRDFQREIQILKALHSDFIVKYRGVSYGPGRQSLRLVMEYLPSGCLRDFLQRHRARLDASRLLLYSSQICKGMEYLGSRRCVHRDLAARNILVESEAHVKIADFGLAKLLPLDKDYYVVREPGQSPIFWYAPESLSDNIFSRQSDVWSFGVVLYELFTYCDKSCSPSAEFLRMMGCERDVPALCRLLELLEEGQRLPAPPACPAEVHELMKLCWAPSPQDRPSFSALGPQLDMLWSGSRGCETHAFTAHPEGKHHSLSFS

[2] = target: T2, Tyrosine-protein kinase BTK (Homo sapiens, UniProt Q06187); experiment: Inhibition of BTK (unknown origin)
[3] = target: Tyrosine-protein kinase HCK (Homo sapiens, UniProt P08631); experiment: Inhibition of HCK (unknown origin)
[4] = Inhibition of mTORC1 (unknown origin) expressed in HEK293T cells using 4EBP1 as substrate assessed as reduction in substrate phosphorylation preincubated for 30 mins followed by ATP addition and measured after 30 mins by Western blot analysis; set-up: species or system Homo sapiens
[5] = target: T3, Cytoplasmic tyrosine-protein kinase BMX (Homo sapiens) (UniProt P51813); experiment: Inhibition of BMX (unknown origin) assessed as residual activity at 200 nM relative to control
T3 sequence (whole entry): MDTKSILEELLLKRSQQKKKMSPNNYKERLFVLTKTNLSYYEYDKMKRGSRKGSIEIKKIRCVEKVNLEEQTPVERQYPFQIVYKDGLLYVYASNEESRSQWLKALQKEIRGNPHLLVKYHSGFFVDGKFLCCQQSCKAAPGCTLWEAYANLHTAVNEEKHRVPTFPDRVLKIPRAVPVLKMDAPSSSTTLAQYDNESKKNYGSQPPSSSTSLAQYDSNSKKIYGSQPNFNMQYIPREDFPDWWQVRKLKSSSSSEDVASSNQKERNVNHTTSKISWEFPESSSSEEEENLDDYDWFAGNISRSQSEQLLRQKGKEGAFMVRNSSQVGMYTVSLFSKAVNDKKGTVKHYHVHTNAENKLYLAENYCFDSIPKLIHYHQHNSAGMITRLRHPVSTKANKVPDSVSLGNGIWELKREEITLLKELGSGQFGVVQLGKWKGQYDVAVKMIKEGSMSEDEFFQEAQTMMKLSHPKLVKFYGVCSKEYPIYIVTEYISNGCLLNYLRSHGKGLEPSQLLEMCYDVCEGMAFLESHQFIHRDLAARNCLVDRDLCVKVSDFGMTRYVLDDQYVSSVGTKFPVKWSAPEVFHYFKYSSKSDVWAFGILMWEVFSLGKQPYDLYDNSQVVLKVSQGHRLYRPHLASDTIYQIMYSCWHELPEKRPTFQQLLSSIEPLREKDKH

[6] = target: T2, Tyrosine-protein kinase BTK; experiment: Inhibition of BTK (unknown origin) assessed as residual activity at 200 nM relative to control
Tubulin (Homo sapiens) = Tubulin (Homo sapiens) (UniProt P68371+Q9H4B7+P0DPH7+P68366+Q13509+Q71U36+P04350+Q3ZCM7+P07437+P68363+Q9BQE3+Q6PEY2+Q13885+Q9BVA1+Q9BUF5); experiment: Inhibition of microtubule polymerization in human U-266 cells assessed as increase in phospho-Bcl2 expression at 10 uM measured upto 24 hrs by Western blot analysis relative to control; type: cell-based
DOHH-2 [7] = experiment: Cytotoxicity against human DOHH-2 cells expressing BTK and PI3kdelta assessed as inhibition of cell growth incubated for 72 hrs by celltiter-glo assay; type: functional, cell-based; conditions: DOHH-2, 72 h
DOHH-2 [8] = experiment: Antitumor activity against human DOHH-2 cells xenografted in CB17/SCID mouse assessed as reduction in tumor growth at 100 mg/kg, po administered twice daily for 30 days and measured twice a week relative to control; type: functional; set-up: scale not given: the % may be the effect or the level left; conditions: time 30 day
DOHH-2 [9] = experiment: Antitumor activity against human DOHH-2 cells xenografted in CB17/SCID mouse assessed as reduction in tumor growth at 25 mg/kg, po administered twice daily in combination with ibrutinib at 15 mg/kg for 30 days and measured twice a week relative to control; type: functional; set-up: scale not given: the % may be the effect or the level left; conditions: time 30 day
DOHH-2 [10] = experiment: Antitumor activity against human DOHH-2 cells xenografted in CB17/SCID mouse assessed as reduction in tumor growth at 50 mg/kg, po administered twice daily in combination with ibrutinib at 30 mg/kg for 30 days and measured twice a week relative to control; type: functional; set-up: scale not given: the % may be the effect or the level left; conditions: time 30 day
[11] = target: T2, Tyrosine-protein kinase BTK; experiment: Inhibition of N-terminal His6-tagged human full length recombinant BTK expressed in baculovirus infected Sf21 insect cells using YIYGSFK as substrate preincubated for 5 mins followed by 33p-labeled ATP addition and measured after 1 hr by thin layer chromatography
PC-3 = experiment: Antitumor activity against human PC-3 cells xenografted in nude mouse assessed as inhibition of tumor growth at 10 mg/kg/day, ip administered for 42 days starting from 14 days post inoculation relative to control; type: functional; conditions: PC-3, 1008 h, time 42 day, read-out: TGI
MV4-11 = experiment: Antiproliferative activity against human MV4-11 cells assessed as inhibition of cell growth; type: functional, cell-based
MOLM-13 = experiment: Antiproliferative activity against human MOLM-13 cells assessed as inhibition of cell growth; type: functional, cell-based
BaF3 [12] = experiment: Antiproliferative activity against mouse BaF3 cells expressing wild type FLT3 assessed as inhibition of cell growth; type: functional, cell-based
BaF3 [13] = experiment: Antiproliferative activity against mouse BaF3 cells expressing […] FLT3 ITD mutant assessed as inhibition of cell growth; type: functional, cell-based
BaF3 [14] = experiment: Antiproliferative activity against mouse BaF3 cells expressing […] FLT3 […] mutant assessed as inhibition of cell growth; type: functional, cell-based
BaF3 [15] = experiment: Antiproliferative activity against mouse BaF3 cells expressing […] FLT3 ITD/[…] double mutant assessed as inhibition of cell growth; type: functional, cell-based
BaF3 [16] = experiment: Antiproliferative activity against mouse BaF3 cells expressing […] FLT3 ITD F691L mutant assessed as inhibition of cell growth; type: functional, cell-based
[17] = target: T2, Tyrosine-protein kinase BTK; experiment: Inhibition of N-terminal His tagged human recombinant full length BTK expressed in baculovirus infected Sf9 insect cells using Poly (4:1 Glu, Tyr) Peptide as substrate at 0.5 uM incubated for 60 mins by ADP-glo reagent based luminescence assay relative to control
[18] = Cytotoxicity against human MM.1 cells assessed as inhibition of cell growth incubated for 48 hrs by MTT assay; type: functional, cell-based; conditions: Mm1, 48 h
U-266 [19] = experiment: Cytotoxicity against human U-266 cells assessed as inhibition of cell growth incubated for 48 hrs by MTT assay; type: functional, cell-based; conditions: U-266, 48 h
RPMI-8226 = experiment: Cytotoxicity against human RPMI-8226 cells assessed as inhibition of cell growth incubated for 48 hrs by MTT assay; type: functional, cell-based; conditions: RPMI-8226, 48 h
U-266 [20] = experiment: Antitumor activity against human U-266 cells xenografted in BALB/c nude mouse assessed as tumor growth inhibition at 1 mg/kg, ip administered twice weekly and measured for 4 weeks by digital caliper analysis relative to control; type: functional; conditions: U-266, 672 h, read-out: TGI
DOHH-2 [21] = experiment: Antitumor activity against human DOHH-2 cells xenografted in CB17/SCID mouse assessed as reduction in tumor growth at 15 mg/kg, po administered once daily in combination with idelalisib at 25 mg/kg for 30 days and measured twice a week relative to control; type: functional; set-up: scale not given: the % may be the effect or the level left; conditions: time 30 day
DOHH-2 [22] = experiment: Antitumor activity against human DOHH-2 cells xenografted in CB17/SCID mouse assessed as reduction in tumor growth at 30 mg/kg, po administered once daily in combination with idelalisib at 50 mg/kg for 30 days and measured twice a week relative to control; type: functional; set-up: scale not given: the % may be the effect or the level left; conditions: time 30 day

T2 sequence (Q06187 whole entry): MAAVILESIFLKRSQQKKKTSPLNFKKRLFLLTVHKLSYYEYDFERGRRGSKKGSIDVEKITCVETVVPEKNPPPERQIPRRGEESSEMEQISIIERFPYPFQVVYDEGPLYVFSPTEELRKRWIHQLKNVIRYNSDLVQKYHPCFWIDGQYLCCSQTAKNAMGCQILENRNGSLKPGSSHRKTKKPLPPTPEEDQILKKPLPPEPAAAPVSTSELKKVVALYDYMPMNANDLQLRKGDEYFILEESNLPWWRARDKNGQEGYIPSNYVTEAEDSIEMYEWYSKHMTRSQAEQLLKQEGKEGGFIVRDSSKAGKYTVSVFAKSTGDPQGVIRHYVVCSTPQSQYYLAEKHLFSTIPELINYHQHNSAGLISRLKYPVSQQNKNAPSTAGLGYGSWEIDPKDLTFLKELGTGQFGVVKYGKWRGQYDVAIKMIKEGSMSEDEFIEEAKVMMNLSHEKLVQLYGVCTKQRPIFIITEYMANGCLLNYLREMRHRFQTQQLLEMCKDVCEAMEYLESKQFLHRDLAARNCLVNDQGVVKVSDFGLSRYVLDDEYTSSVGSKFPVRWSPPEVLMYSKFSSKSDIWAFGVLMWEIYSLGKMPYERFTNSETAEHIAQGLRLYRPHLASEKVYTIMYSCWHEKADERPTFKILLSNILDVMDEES
Chain of Tyrosine-protein kinase HCK (P08631 whole entry): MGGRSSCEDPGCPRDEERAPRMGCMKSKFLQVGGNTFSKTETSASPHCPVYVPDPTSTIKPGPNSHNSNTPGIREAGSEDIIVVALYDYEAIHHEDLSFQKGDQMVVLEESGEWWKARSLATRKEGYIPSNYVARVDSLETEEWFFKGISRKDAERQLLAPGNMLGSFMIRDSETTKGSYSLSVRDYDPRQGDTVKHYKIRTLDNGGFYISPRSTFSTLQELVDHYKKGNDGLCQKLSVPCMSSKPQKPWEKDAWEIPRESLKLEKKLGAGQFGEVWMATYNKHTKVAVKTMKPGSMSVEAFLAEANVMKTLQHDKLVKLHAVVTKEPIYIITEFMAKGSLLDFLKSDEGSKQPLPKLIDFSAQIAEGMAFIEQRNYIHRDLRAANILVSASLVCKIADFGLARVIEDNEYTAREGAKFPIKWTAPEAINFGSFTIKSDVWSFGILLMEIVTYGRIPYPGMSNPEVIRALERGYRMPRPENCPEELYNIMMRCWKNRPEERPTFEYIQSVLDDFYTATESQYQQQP

- pIC50 [1]: < 5.00
- pIC50 [2]: > 9.00
SMILES: C=CC(=O)Nc1cccc(-c2c[nH]c3ncc(NC(=O)c4cccs4)cc23)c1

- pIC50 [2]: 9.04
- pIC50 [3]: > 9.30
SMILES: CN1CCN([C@H]2CC[C@H](n3nc(-c4ccc(Oc5ccccc5)cc4)c4c(N)ncnc43)CC2)CC1

- Activity [5]: 2.7%
- Activity [6]: 18.2%
SMILES: C=CC(=O)Nc1cccc(-c2c[nH]c3ncccc23)c1

- inhibition (Tubulin (Homo sapiens)): 66%
SMILES: CC[C@]1(O)C[C@@H]2CN(CCc3c([nH]c4ccccc34)[C@@](C(=O)OC)(c3cc4c(cc3OC)N(C)[C@H]3[C@@](O)(C(=O)OC)[C@H](OC(C)=O)[C@]5(CC)C=CCN6CC[C@]43[C@@H]65)C2)C1

- pIC50 [11]: 7.30
SMILES: CC(C)Cc1nc2cc3c(cc2[nH]c1=O)nc(NC(=O)c1ccc(-c2ccncc2)cc1)n3CCCN1CCCCC1
- inhibition in vivo at 10 mg/kg/day (PC-3): 70%

- pIC50 (MV4-11): 9.77
- pIC50 (MOLM-13): 9.09
- pIC50 (BaF3 [12]): 8.02
- pIC50 (BaF3 [13]): 9.52
- pIC50 (BaF3 [14]): 8.08
- pIC50 (BaF3 [15]): 8.01
- pIC50 (BaF3 [16]): 9.37
SMILES: Cc1cnc(-c2ccc(-c3ccc(NC(=O)Nc4cccc(C(F)(F)F)c4)cc3F)c3c2C(=O)NC3)[nH]1

Second part, the compound before the results:

SMILES: Nc1ccc(-c2ccc3ncc4ccc(=O)n(-c5cccc(C(F)(F)F)c5)c4c3c2)cn1
- pIC50 [4]: 9.60

SMILES: Nc1ccc2c(c1)CC(n1nc(-c3cc(F)c4c(c3)NCCO4)c3c(N)ncnc31)C2 (stereo unspecified)
- pIC50 (DOHH-2 [7]): 5.87
- Activity (DOHH-2 [8]): 45.2%

SMILES: CC[C@H](Nc1ncnc2[nH]cnc12)c1nc2cccc(F)c2c(=O)n1-c1ccccc1 [IDELALISIB]
- pIC50 (DOHH-2 [7]): 6.07
- Activity (DOHH-2 [9]): 38.1%
- Activity (DOHH-2 [10]): 57.9%

SMILES: N#CSCc1ccc(CN2C(=O)C(=O)c3cc(Br)cc(Br)c32)cc1
- inhibition [17]: 50%
- inhibition (Tubulin (Homo sapiens)): 77%
- pIC50 [18]: 6.30
- pIC50 (U-266 [19]): 6.30
- pIC50 (RPMI-8226): 6.30
- inhibition in vivo at 1 mg/kg (U-266 [20]): 50%

SMILES: C=CC(=O)N1CCC[C@@H](n2nc(-c3ccc(Oc4ccccc4)cc3)c3c(N)ncnc32)C1 [IBRUTINIB]
- pIC50 (DOHH-2 [7]): 7.64
- Activity (DOHH-2 [21]): 38.1%
- Activity (DOHH-2 [22]): 57.9%
